Measured values published in paper PMC8185074, “Anchor extension: a structure-guided approach to design cyclic peptides targeting enzyme active sites” (Nature Communications, 2021).
Like-named read-outs stand apart in the source and are kept apart here. Peptide text beside a SMILES is read from it.

What was measured:
HDAC2 [1] = molecular target: T1, HDAC2 (Homo sapiens, UniProt Q92769); assay: HDAC2 inhibition, full IC50 measurement (Reaction Biology; fluorogenic p53 peptide RHKK(Ac)AMC); type: biochemical
T1 construct: purchased Reaction Biology Corporation (assay run by the CRO)
T1 sequence (Q92769 whole entry): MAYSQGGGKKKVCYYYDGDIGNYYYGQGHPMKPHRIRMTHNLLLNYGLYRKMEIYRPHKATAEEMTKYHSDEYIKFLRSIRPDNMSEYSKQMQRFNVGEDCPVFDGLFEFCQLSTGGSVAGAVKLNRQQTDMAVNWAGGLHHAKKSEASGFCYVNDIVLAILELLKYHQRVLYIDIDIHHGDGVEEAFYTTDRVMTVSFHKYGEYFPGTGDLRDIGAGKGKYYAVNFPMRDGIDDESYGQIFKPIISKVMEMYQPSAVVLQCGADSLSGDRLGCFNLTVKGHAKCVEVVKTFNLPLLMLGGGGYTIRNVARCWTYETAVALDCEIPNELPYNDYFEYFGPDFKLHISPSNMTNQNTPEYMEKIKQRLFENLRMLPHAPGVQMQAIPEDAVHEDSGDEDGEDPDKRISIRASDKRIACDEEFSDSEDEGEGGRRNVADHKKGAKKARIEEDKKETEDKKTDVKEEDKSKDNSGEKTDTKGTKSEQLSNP
Procedure: The assay was performed using 50 μM fluorogenic peptide from p53 residues 379-382 [RHKK(Ac)AMC] in a base reaction buffer of 50 mM Tris-HCl at pH 8.0, 137 mM NaCl, 2.7 mM KCl, 1 mM MgCl2, and freshly added 1 mg/ml BSA and 1% DMSO. Peptides were first dissolved in DMSO and then added to the reaction mixture with the enzyme using acoustic technique, enough to reach the desired concentration for that assay point. Peptide concentrations were calculated based on mass of lyophilized peptide and its molecular weight. The substrate was then added and incubated for 1 hour at 30 °C in a sealed container. After the incubation, developer was added to stop the reaction and develop color. Kinetic measurements were then performed for 20 min with Envision with 5 min intervals (Ex/Em = 360/460 nm). The endpoint after plateau was taken for IC50 measurement.
In cases where duplicate measures are used, average data is reported in the main text or Supplementary Tables.

HDAC2 [2] = molecular target: T1, HDAC2; assay: Initial HDAC2 IC50 estimate (BPS Biosciences HDAC fluorogenic assay kit); type: biochemical
Procedure: Initial IC50 values were estimated using HDAC fluorogenic assay kits from BPS Biosciences (HDAC2, HDAC4, and HDAC6) following the protocol described in the kit. All the measures were performed in duplicates or triplicates. These measurements were done either on full range of concentrations (1:10 dilution from 1 µM to 100 pM) or on two concentrations only (20 nM and 200 nM) as an estimate of the range. […] Source Data are provided as a Source Data file.

[3] = Supp. Table 4, rough estimates, for promising hits full measurements, read-out: HDAC2 activity (initial values for HDAC2 IC50)
[4] = Supplementary Dataset 2, read-out: HDAC2 activity (initial activity)
[5] = HDAC2 activity (initial activity), Supplementary Dataset 2

## N=C(N)NCCC[C@@H]1NC(=O)[C@@H](CCCNC(=N)N)NC(=O)[C@H]2CCCN2C(=O)[C@@H](Cc2c[nH]cn2)NC(=O)[C@H](Cc2ccc(O)cc2)NC(=O)[C@H](CCCCCS)NC(=O)[C@H](CCc2ccccc2)NC(=O)[C@@H](CCCCN)NC(=O)[C@H](CC(=O)O)NC1=O [des3.2.0, SHA-Tyr-dHis-dPro-dArg-Arg-Asp-dLys-C27] (HELM PEPTIDE1{D.[dK].[O=C([C@H](CCc1ccccc1)N[*:1])[*:2]].[O=C([C@H](CCCCCS)N[*:1])[*:2]].Y.[dH].[dP].[dR].R}$PEPTIDE1,PEPTIDE1,1:R1-9:R2$$$V2.0)
HDAC2 [1]
  2-Selectivity: fold potency for HDAC2 over HDAC6: 0.53 fold
HDAC2 [2]; [3]
  IC50: 28 nM
HDAC2 [2]; [4]
  IC50: > 10 nM

## N=C(N)NCCC[C@@H]1NC(=O)[C@@H](CCCNC(=N)N)NC(=O)[C@H]2CCCN2C(=O)[C@@H](Cc2c[nH]cn2)NC(=O)[C@H](Cc2ccc(O)cc2)NC(=O)[C@H](CCCCCS)NC(=O)[C@H](CCc2ccccc2)NC(=O)[C@H]2CCCN2C(=O)[C@H](CC(=O)O)NC1=O [des3.2.1, SHA-Tyr-dHis-dPro-dArg-Arg-Asp-dPro-C27] (HELM PEPTIDE1{D.[dP].[O=C([C@H](CCc1ccccc1)N[*:1])[*:2]].[O=C([C@H](CCCCCS)N[*:1])[*:2]].Y.[dH].[dP].[dR].R}$PEPTIDE1,PEPTIDE1,1:R1-9:R2$$$V2.0)
HDAC2 [1]
  2-Selectivity: fold potency for HDAC2 over HDAC6: 0.44 fold
HDAC2 [2]; HDAC2 activity (initial values for HDAC2 IC50), Supp. Table 4, rough estimates, for promising hits full measurements
  IC50: 66 nM

## N=C(N)NCCC[C@H]1NC(=O)[C@H]2CCCN2C(=O)[C@@H](Cc2c[nH]cn2)NC(=O)[C@H](Cc2ccc(O)cc2)NC(=O)[C@H](CCCCCS)NC(=O)[C@H](CCc2ccccc2)NC(=O)[C@@H](CCCCN)NC(=O)[C@H](CC(=O)O)NC(=O)[C@@H]2CCCN2C1=O [des3.2.2, SHA-Tyr-dHis-dPro-dArg-Pro-Asp-dLys-C27] (HELM PEPTIDE1{D.[dK].[O=C([C@H](CCc1ccccc1)N[*:1])[*:2]].[O=C([C@H](CCCCCS)N[*:1])[*:2]].Y.[dH].[dP].[dR].P}$PEPTIDE1,PEPTIDE1,1:R1-9:R2$$$V2.0)
HDAC2 [1]
  2-Selectivity: fold potency for HDAC2 over HDAC6: 0.41 fold
HDAC2 [2]; [4]
  IC50: 58 nM

## N=C(N)NCCC[C@H]1NC(=O)[C@H]2CCCN2C(=O)[C@@H](Cc2c[nH]cn2)NC(=O)[C@H](Cc2ccc(O)cc2)NC(=O)[C@H](CCCCCS)NC(=O)[C@H](CCc2ccccc2)NC(=O)[C@H]2CCCN2C(=O)[C@H](CC(=O)O)NC(=O)[C@@H]2CCCN2C1=O [des3.2.3, SHA-Tyr-dHis-dPro-dArg-Pro-Asp-dPro-C27] (HELM PEPTIDE1{D.[dP].[O=C([C@H](CCc1ccccc1)N[*:1])[*:2]].[O=C([C@H](CCCCCS)N[*:1])[*:2]].Y.[dH].[dP].[dR].P}$PEPTIDE1,PEPTIDE1,1:R1-9:R2$$$V2.0)
HDAC2 [1]
  2-Selectivity: fold potency for HDAC2 over HDAC6: 0.47 fold
HDAC2 [2]; [5]
  IC50: 92 nM

## N=C(N)NCCC[C@@H]1NC(=O)[C@@H](CCCNC(=N)N)NC(=O)[C@H]2CCCN2C(=O)[C@@H](CO)NC(=O)[C@H](Cc2ccc(O)cc2)NC(=O)[C@H](CCCCCS)NC(=O)[C@H](CCc2ccccc2)NC(=O)[C@@H](CCC(N)=O)NC(=O)[C@H](CC(=O)O)NC1=O [des3.3.2, SHA-Tyr-dSer-dPro-dArg-Arg-Asp-dGln-C27] (HELM PEPTIDE1{D.[dQ].[O=C([C@H](CCc1ccccc1)N[*:1])[*:2]].[O=C([C@H](CCCCCS)N[*:1])[*:2]].Y.[dS].[dP].[dR].R}$PEPTIDE1,PEPTIDE1,1:R1-9:R2$$$V2.0)
HDAC2 [1]
  2-Selectivity: fold potency for HDAC2 over HDAC6: 3 fold
HDAC2 [2]; [3]
  IC50: 57 nM
HDAC2 [2]; [4]
  IC50: 50 nM

## N=C(N)NCCC[C@@H]1NC(=O)[C@@H](CCCNC(=N)N)NC(=O)[C@H]2CCCN2C(=O)[C@@H](CC(N)=O)NC(=O)[C@H](Cc2ccc(O)cc2)NC(=O)[C@H](CCCCCS)NC(=O)[C@H](CCc2ccccc2)NC(=O)[C@@H](CCCCN)NC(=O)[C@H](CC(=O)O)NC1=O [des3.4.0, SHA-Tyr-dAsn-dPro-dArg-Arg-Asp-dLys-C27] (HELM PEPTIDE1{D.[dK].[O=C([C@H](CCc1ccccc1)N[*:1])[*:2]].[O=C([C@H](CCCCCS)N[*:1])[*:2]].Y.[dN].[dP].[dR].R}$PEPTIDE1,PEPTIDE1,1:R1-9:R2$$$V2.0)
HDAC2 [2]; [5]
  IC50: 10 to 100 nM

## C[C@H]1NC(=O)[C@H](CCCCCS)NC(=O)[C@H](CCN)NC(=O)[C@@H](CC(N)=O)NC(=O)[C@H](CO)NC(=O)[C@H](CC(=O)O)NC(=O)[C@@H](CC(=O)O)NC(=O)[C@@H]2CCCN2C(=O)[C@H](Cc2ccccc2)NC1=O [des3.5.1, SHA-dAla-Phe-Pro-dAsp-Asp-Ser-dAsn-Dab] (HELM PEPTIDE1{D.S.[dN].[Dab].[O=C([C@H](CCCCCS)N[*:1])[*:2]].[dA].F.P.[dD]}$PEPTIDE1,PEPTIDE1,1:R1-9:R2$$$V2.0)
HDAC2 [2]; [5]
  IC50: > 1000 nM

## C[C@H]1NC(=O)[C@@H](Cc2c[nH]cn2)NC(=O)[C@H](CCCCCS)NC(=O)[C@H](Cc2c[nH]c3ccccc23)NC(=O)[C@@H](CCCNC(=N)N)NC(=O)[C@@H]2CCCN2C(=O)[C@@H](CC(N)=O)NC(=O)[C@@H](CC(N)=O)NC(=O)[C@H](Cc2ccc(O)cc2)NC1=O [des3.6.0, SHA-dHis-dAla-Tyr-dAsn-dAsn-Pro-dArg-Trp] (HELM PEPTIDE1{P.[dR].W.[O=C([C@H](CCCCCS)N[*:1])[*:2]].[dH].[dA].Y.[dN].[dN]}$PEPTIDE1,PEPTIDE1,1:R1-9:R2$$$V2.0)
HDAC2 [2]; [5]
  IC50: > 1000 nM

## CCCC[C@@H]1NC(=O)[C@H](CCCCCS)NC(=O)[C@H](CCc2ccccc2)NC(=O)[C@H](C)NC(=O)[C@@H]2CCCN2C(=O)[C@@H](CC(=O)O)NC(=O)[C@@H](CO)NC(=O)[C@H](Cc2c[nH]c3ccccc23)NC(=O)[C@@H](CO)NC1=O [des3.7.0, SHA-Nlu-dSer-Trp-dSer-dAsp-Pro-Ala-C27] (HELM PEPTIDE1{[O=C([C@H](CCCCCS)N[*:1])[*:2]].[Nle].[dS].W.[dS].[dD].P.A.[O=C([C@H](CCc1ccccc1)N[*:1])[*:2]]}$PEPTIDE1,PEPTIDE1,1:R1-9:R2$$$V2.0)
HDAC2 [2]; [4]
  IC50: > 1000 nM

## CC(C)C[C@@H]1NC(=O)[C@@H](CCC(=O)O)NC(=O)[C@@H](CC(N)=O)NC(=O)[C@@H](Cc2c[nH]cn2)NC(=O)[C@H](CCCCCS)NC(=O)[C@H](Cc2ccc3ccccc3c2)NC(=O)[C@H](CCCNC(=N)N)NC(=O)[C@@H]2CCCN2C(=O)[C@@H](C)NC1=O [des3.8.0, SHA-dHis-dAsn-dGlu-Leu-dAla-Pro-Arg-B74] (HELM PEPTIDE1{[O=C([C@H](Cc1ccc2ccccc2c1)N[*:1])[*:2]].[O=C([C@H](CCCCCS)N[*:1])[*:2]].[dH].[dN].[dE].L.[dA].P.R}$PEPTIDE1,PEPTIDE1,1:R1-9:R2$$$V2.0)
HDAC2 [2]; [5]
  IC50: > 1000 nM

## C[C@@H]1NC(=O)[C@@H](CCCNC(=N)N)NC(=O)[C@H](CCCCCS)NC(=O)[C@H](CCc2ccccc2)NC(=O)[C@@H](CCCNC(=N)N)NC(=O)[C@@H](Cc2ccccc2)NC(=O)[C@@H](CCC(=O)O)NC(=O)[C@@H](CCCCN)NC(=O)[C@@H]2CCCN2C1=O [des3.10.0, SHA-dArg-Ala-Pro-dLys-dGlu-dPhe-dArg-C27] (HELM PEPTIDE1{A.P.[dK].[dE].[dF].[dR].[O=C([C@H](CCc1ccccc1)N[*:1])[*:2]].[O=C([C@H](CCCCCS)N[*:1])[*:2]].[dR]}$PEPTIDE1,PEPTIDE1,1:R1-9:R2$$$V2.0)
HDAC2 [2]; [5]
  IC50: 10 to 100 nM
